Test system: A375 multi-cell spheroids with HUVEC/MSC, viability
Test: Anticancer human tumor A375 cell line growth inhibition [GQUAD];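 also: spheroids exposed to compounds for seven days before readout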
Details: for IC50: curve of first compound; for viability, T/C: stronger effect = lower value
In short: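 Multi-cell-type spheroids of tumor cells with HUVEC and mesenchymal stem cells, treated with drug combinations. Concentrations descend in half-log steps from near clinical Cmax, or from 10 microM where Cmax is unknown; viability read-out.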

[1] = second compound 0.0316 µM, first compound 0.0316 µM
[2] = second compound 0.0316 µM, first compound 0.1 µM
[3] = second compound 0.0316 µM, first compound 0.316 µM
[4] = second compound 0.0316 µM, first compound 1 µM
[5] = second compound 0.0316 µM, first compound 3.16 µM
[6] = second compound 0.0316 µM, first compound 10 µM
[7] = second compound 0.1 µM, first compound 0.0316 µM
[8] = second compound 0.1 µM, first compound 0.1 µM
[9] = second compound 0.1 µM, first compound 0.316 µM
[10] = second compound 0.1 µM, first compound 1 µM
[11] = second compound 0.1 µM, first compound 3.16 µM
[12] = second compound 0.1 µM, first compound 10 µM
[13] = second compound 0.316 µM, first compound 0.0316 µM
[14] = second compound 0.316 µM, first compound 0.1 µM
[15] = second compound 0.316 µM, first compound 0.316 µM
[16] = second compound 0.316 µM, first compound 1 µM
[17] = second compound 0.316 µM, first compound 3.16 µM
[18] = second compound 0.316 µM, first compound 10 µM
[19] = second compound 1 µM, first compound 0.0316 µM
[20] = second compound 1 µM, first compound 0.1 µM
[21] = second compound 1 µM, first compound 0.316 µM
[22] = second compound 1 µM, first compound 1 µM
[23] = second compound 1 µM, first compound 3.16 µM
[24] = second compound 1 µM, first compound 10 µM
[25] = second compound 3.16 µM, first compound 0.0316 µM
[26] = second compound 3.16 µM, first compound 0.1 µM
[27] = second compound 3.16 µM, first compound 0.316 µM
[28] = second compound 3.16 µM, first compound 1 µM
[29] = second compound 3.16 µM, first compound 3.16 µM
[30] = second compound 3.16 µM, first compound 10 µM
[31] = second compound 10 µM, first compound 0.0316 µM
[32] = second compound 10 µM, first compound 0.1 µM
[33] = second compound 10 µM, first compound 0.316 µM
[34] = second compound 10 µM, first compound 1 µM
[35] = second compound 10 µM, first compound 3.16 µM
[36] = second compound 10 µM, first compound 10 µM

Molecule `C=CC(=O)N1CCN(c2nc(=O)n(-c3c(C)ccnc3C(C)C)c3nc(-c4c(O)cccc4F)c(F)cc23)C(C)C1` (centres undefined) + Cc1cnc(CNC(=O)c2c(=O)c3ccc(N4CCCN(C)CC4)nc3n3c2sc2ccccc23)cn1 has an IC50 (second compound 0.0316 µM) greater than 10 µM, an IC50 (second compound 0.1 µM) greater than 10 µM and an IC50 (second compound 0.316 µM) greater than 10 µM. It also gave an IC50 (second compound 1 µM) of less than 0.0316 µM, an IC50 (second compound 3.16 µM) of less than 0.0316 µM and an IC50 (second compound 10 µM) of less than 0.0316 µM. It also gave a viability, T/C [1] of 94.5%, a viability, T/C [2] of 103% and a viability, T/C [3] of 109%. For the same molecule, the viability, T/C [4] was 106%, the viability, T/C [5] was 145% and the viability, T/C [6] was 129%. It also gave a viability, T/C [7] of 86.7%, a viability, T/C [8] of 77.3% and a viability, T/C [9] of 92.9%. For the same molecule, the viability, T/C [10] was 82.3%, the viability, T/C [11] was 95% and the viability, T/C [12] was 83.2%. The viability, T/C [13] was 51.6%, the viability, T/C [14] was 56.6% and the viability, T/C [15] was 55.4%. For the same molecule, the viability, T/C [16] was 57%, the viability, T/C [17] was 59.2% and the viability, T/C [18] was 58%. It also gave a viability, T/C [19] of 42.4%, a viability, T/C [20] of 47.9% and a viability, T/C [21] of 48.8%. For the same molecule, the viability, T/C [22] was 48.6%, the viability, T/C [23] was 45.1% and the viability, T/C [24] was 40.2%. The viability, T/C [25] was 34.9%, the viability, T/C [26] was 32.5% and the viability, T/C [27] was 32.7%. It also gave a viability, T/C [28] of 36.4%, a viability, T/C [29] of 37.6% and a viability, T/C [30] of 34.1%. It also gave a viability, T/C [31] of 28.8%, a viability, T/C [32] of 32.9% and a viability, T/C [33] of 33%. It also gave a viability, T/C [34] of 33.5%, a viability, T/C [35] of 31.6% and a viability, T/C [36] of 28.5%.
Work on `CC1COCCN1c1cc(-c2ccnn2C)c2ccnc(-c3ccn[nH]3)c2n1` (centres undefined) + Cc1cnc(CNC(=O)c2c(=O)c3ccc(N4CCCN(C)CC4)nc3n3c2sc2ccccc23)cn1 yielded an IC50 (second compound 0.0316 µM) of 0.279 µM, an IC50 (second compound 0.1 µM) of 0.0743 µM and an IC50 (second compound 0.316 µM) of less than 0.0316 µM. The IC50 (second compound 1 µM) was less than 0.0316 µM, the IC50 (second compound 3.16 µM) was less than 0.0316 µM and the IC50 (second compound 10 µM) was less than 0.0316 µM. It also gave a viability, T/C [1] of 102%, a viability, T/C [2] of 69.3% and a viability, T/C [3] of 51.9%. It also gave a viability, T/C [4] of 28.3%, a viability, T/C [5] of 13.8% and a viability, T/C [6] of 13.9%. The viability, T/C [7] was 67.5%, the viability, T/C [8] was 37.5% and the viability, T/C [9] was 35.9%. For the same molecule, the viability, T/C [10] was 23.3%, the viability, T/C [11] was 13.7% and the viability, T/C [12] was 9.98%. It also gave a viability, T/C [13] of 39.5%, a viability, T/C [14] of 33.8% and a viability, T/C [15] of 27.6%. For the same molecule, the viability, T/C [16] was 21.7%, the viability, T/C [17] was 13.9% and the viability, T/C [18] was 10.4%. It also gave a viability, T/C [19] of 38.2%, a viability, T/C [20] of 35% and a viability, T/C [21] of 29.6%. For the same molecule, the viability, T/C [22] was 21.5%, the viability, T/C [23] was 12.7% and the viability, T/C [24] was 11.3%. For the same molecule, the viability, T/C [25] was 30.8%, the viability, T/C [26] was 30.2% and the viability, T/C [27] was 30.7%. It also gave a viability, T/C [28] of 22.4%, a viability, T/C [29] of 13.2% and a viability, T/C [30] of 10%. For the same molecule, the viability, T/C [31] was 26.7%, the viability, T/C [32] was 27.9% and the viability, T/C [33] was 24.1%. The viability, T/C [34] was 16.9%, the viability, T/C [35] was 13.3% and the viability, T/C [36] was 9.71%.

From PubChem BioAssay AID2060485 (Molecular Pharmacology Branch, DTP, NCI, 2025)
